The source made the active and inactive calls. Rule as the data show it, for most assays here: actives have a measured EC50 and inactives only a lower limit.
Assays:
[1] = Trypanosoma cruzi growth suppression in host cells – NIH3T3 host cells, beta-gal luminescence, confirmation (AID 2044); format: functional, cell-based;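 also: intracellular parasites grown in NIH/3T3 mouse fibroblasts as host cells; luminescent beta-galactosidase reporter signal from transgenic T. cruzi replicating inside host cells; inhibitors lower the luminescence signal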
[2] = NIH3T3 cell viability loss – ATP luminescence, mouse fibroblasts, counter-screen, dose response (AID 2010); format: functional, cell-based;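 also: cells exposed to compound for about 90 hours before reading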
[3] = molecular target: T1, Replicative DNA helicase DnaB (Mycobacterium tuberculosis, UniProt P9WMR3); experiment: DnaB intein splicing inhibitors, dose response, biochemical, cell-free fluorescence (AID 449749); format: functional
T1 sequence (P9WMR3 whole entry): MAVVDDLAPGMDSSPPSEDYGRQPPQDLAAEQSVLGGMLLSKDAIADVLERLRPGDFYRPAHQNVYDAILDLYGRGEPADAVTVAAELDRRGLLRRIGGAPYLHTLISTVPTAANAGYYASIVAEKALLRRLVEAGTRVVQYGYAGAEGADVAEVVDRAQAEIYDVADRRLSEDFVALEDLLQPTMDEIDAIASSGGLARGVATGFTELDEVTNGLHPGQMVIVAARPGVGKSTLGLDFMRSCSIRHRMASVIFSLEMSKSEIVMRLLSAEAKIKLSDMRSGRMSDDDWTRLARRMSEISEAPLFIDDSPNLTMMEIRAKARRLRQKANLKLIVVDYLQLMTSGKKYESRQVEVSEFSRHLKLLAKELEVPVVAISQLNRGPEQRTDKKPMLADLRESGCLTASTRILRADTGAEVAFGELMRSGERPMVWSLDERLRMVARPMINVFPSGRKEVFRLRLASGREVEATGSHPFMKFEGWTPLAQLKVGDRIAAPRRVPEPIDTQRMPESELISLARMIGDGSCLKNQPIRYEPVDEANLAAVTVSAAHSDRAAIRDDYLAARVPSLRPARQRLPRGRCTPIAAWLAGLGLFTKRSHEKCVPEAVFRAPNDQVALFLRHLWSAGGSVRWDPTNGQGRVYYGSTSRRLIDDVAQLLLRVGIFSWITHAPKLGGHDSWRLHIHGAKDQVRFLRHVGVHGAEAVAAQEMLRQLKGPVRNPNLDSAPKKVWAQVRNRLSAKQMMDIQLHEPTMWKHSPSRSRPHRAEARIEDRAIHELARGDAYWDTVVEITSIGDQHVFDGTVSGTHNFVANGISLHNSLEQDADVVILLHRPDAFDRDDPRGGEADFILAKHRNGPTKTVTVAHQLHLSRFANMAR

Protein RecA = molecular target: T2, Protein RecA (Mycobacterium tuberculosis, UniProt P9WHJ3); experiment: Fluorescence Cell-Free Homogeneous Dose Retest to Identify Inhibitors of RecA-Intein Splicing Activity. [Related pubchem assays (depositor defined):AID2097, AID2223, AID489010, AID492950]; format: functional
T2 sequence (P9WHJ3 whole entry): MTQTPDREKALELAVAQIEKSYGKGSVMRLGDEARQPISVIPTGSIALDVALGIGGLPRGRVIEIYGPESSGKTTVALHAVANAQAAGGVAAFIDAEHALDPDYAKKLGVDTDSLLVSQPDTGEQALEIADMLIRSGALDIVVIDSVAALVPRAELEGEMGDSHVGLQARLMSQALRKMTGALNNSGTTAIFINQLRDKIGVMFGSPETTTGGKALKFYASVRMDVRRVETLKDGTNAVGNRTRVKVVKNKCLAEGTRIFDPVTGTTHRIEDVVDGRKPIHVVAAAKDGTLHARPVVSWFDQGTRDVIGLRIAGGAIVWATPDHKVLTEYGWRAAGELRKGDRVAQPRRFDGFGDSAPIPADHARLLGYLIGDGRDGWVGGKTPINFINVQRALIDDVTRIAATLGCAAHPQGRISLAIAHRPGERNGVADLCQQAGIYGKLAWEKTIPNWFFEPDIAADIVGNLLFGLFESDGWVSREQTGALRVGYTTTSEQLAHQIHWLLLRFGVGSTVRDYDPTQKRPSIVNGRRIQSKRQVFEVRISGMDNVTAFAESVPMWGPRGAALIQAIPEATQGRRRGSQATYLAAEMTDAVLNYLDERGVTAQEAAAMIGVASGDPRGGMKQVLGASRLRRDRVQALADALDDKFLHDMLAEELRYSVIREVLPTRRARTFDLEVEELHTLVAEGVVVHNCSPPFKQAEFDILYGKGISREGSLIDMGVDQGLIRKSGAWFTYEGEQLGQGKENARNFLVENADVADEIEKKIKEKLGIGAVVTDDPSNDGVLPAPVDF

Streptococcus = experiment: GAS UMAA2166 growth inhibition – luminescence, BacTiterGlo, counter-screen for streptokinase expression inhibitor project, dose response (AID 1915); format: functional, organism-based;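 also: potency for reduction of bacterial viability or growth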
[4] = system: Streptococcus sp. 'group A'; experiment: Streptococcus pyogenes SK(-)GAS viability under kanamycin – luminescence, BacTiterGlo, confirmation, counter-screen for streptokinase expression inhibitor project, dose response (AID 1900); format: functional, organism-based
Streptokinase A = molecular target: T3, Streptokinase A (Streptococcus pyogenes serotype M1, UniProt P10520); experiment: viability-normalized secreted streptokinase activity reduction – plasminogen activation absorbance, OD405, dose response (AID 1914); format: functional, Streptococcus pyogenes M1 GAS;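 also: secreted streptokinase activity via plasminogen activation per viability signal from cell pellet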
T3 sequence (P10520 whole entry): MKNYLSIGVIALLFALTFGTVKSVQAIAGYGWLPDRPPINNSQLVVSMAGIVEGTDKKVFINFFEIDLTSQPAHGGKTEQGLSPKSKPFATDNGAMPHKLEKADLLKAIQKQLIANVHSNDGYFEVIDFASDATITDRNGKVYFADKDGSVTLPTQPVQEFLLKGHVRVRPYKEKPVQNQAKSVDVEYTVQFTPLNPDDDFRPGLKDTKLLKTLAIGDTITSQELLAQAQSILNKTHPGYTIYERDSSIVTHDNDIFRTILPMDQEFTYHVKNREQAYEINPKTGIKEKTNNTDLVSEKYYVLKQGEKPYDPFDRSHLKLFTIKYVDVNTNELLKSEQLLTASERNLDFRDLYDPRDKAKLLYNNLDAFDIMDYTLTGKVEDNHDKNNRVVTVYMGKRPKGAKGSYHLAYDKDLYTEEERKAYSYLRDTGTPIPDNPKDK

[5] = Luminescence Cell-Based Dose Retest to Confirm Inhibitors of Cancer Stem Cells. [Related pubchem assays (depositor defined):AID2717, AID2721]; format: functional, Homo sapiens; settings: Homo sapiens

CCCOc1ccc(-c2nc(SCc3ccccc3)nc(O)c2C#N)cc1OC
EC50 [1]: 3.11 µM (active)
EC50 [2]: 17.8 µM (active)

CCOc1ccc(C2C(C#N)=C(N)Oc3[nH]nc(C)c32)cc1OC(=O)C1CC1 (centres undefined)
AC50 [3]: 17.7 µM (active)
EC50 (Protein RecA): 9.82 µM (active)

CCCCOc1ccc(C(=O)CCN2CCOCC2)cc1
EC50 [1]: 0.836 µM (active)
EC50 [2]: > 60 µM (not active)

Cc1cc(=O)n(-c2ccc(C(=O)O)cc2)[nH]1
AC50 [3]: 1.9 µM (active)
EC50 (Protein RecA): 1.92 µM (active)

CCCCn1c(O)c(N=NC(=O)c2ccccc2NS(=O)(=O)c2cccs2)c2ccccc21
EC50 (Streptococcus): 68.3 µM (active)
EC50 [4]: 21.8 µM (active)
EC50 (Streptokinase A): > 150 µM (not active)

O=C(CCl)N(c1ccccc1)c1ccccc1
AC50 [3]: 17.1 µM (active)
EC50 (Protein RecA): 0.484 µM (active)

Cc1cc(O)c(C(C)C)cc1/N=C\c1ccccc1O
AC50 [3]: 4.29 µM (active)
EC50 (Protein RecA): 8.89 µM (active)

C=CCn1c(SCCC)nc2sc3c(c2c1=O)CCc1ccccc1-3
AC50 [5]: 1.1 µM (active)

CC1CC(NC(=O)c2c(O)n3ccsc3nc2=O)CC(C)(C)C1 (centres undefined)
EC50 (Streptococcus): > 150 µM (not active)
EC50 [4]: 11.3 µM (active)
EC50 (Streptokinase A): 14.5 µM (active)

Cc1cc(N/N=C/c2ccccc2O)nc(-c2ccccc2O)n1
EC50 (Streptococcus): 2.9 µM (active)
EC50 [4]: 0.855 µM (active)

O=C(Nc1ccc(Cl)cc1)Nc1ccccc1Sc1ncc([N+](=O)[O-])s1
AC50 [5]: 4.23 µM (active)

CC(NC(=O)c1cccc(Cn2cc([N+](=O)[O-])cn2)c1)c1ccc(C(C)(C)C)cc1 (centres undefined)
EC50 [1]: 2.59 µM (active)
EC50 [2]: > 60 µM (not active)

CC(C)(C)c1cc(C(=O)NCCN2CCCC2)cc(C(C)(C)C)c1
EC50 [1]: 4.49 µM (active)
EC50 [2]: > 30 µM (not active)

COc1cccc(-c2sc3ccc(OC)cc3c2C#CCCO)c1
AC50 [5]: 2.79 µM (active)

O=C(CSc1nnnn1-c1ccc(O)cc1)N1N=C(c2ccc3ccccc3c2)CC1c1ccccc1 (centres undefined)
EC50 [1]: 2.08 µM (active)
EC50 [2]: > 60 µM (not active)

CC1(C)CC2CC(C)(CN2S(=O)(=O)c2ccc(C(=O)Nc3ccc(Cl)c(S(=O)(=O)N4CCOCC4)c3)cc2)C1 (centres undefined)
EC50 [1]: 2.22 µM (active)
EC50 [2]: 21.6 µM (active)

CC(C)c1nc(NCc2ccccc2)c(C#N)c2c1CCCC2
EC50 (Streptococcus): 12.2 µM (active)
EC50 [4]: 4.75 µM (active)
EC50 (Streptokinase A): 1.96 µM (active)

COc1ccc(CC(C)N2CCN(Cc3ccccc3)CC2)c(OC)c1 (centres undefined)
EC50 [1]: 0.502 µM (active)
EC50 [2]: > 30 µM (not active)

Cc1ccc(-c2cc(C(F)F)n3ncc(C(=O)N4CCCCC4c4cccnc4)c3n2)cc1 (centres undefined)
EC50 [1]: 0.708 µM (active)
EC50 [2]: > 60 µM (inconclusive)

Cc1cc(C)c(S(=O)(=O)c2cc(F)ccc2C)c(Cl)n1
EC50 [1]: 1.39 µM (active)
EC50 [2]: > 60 µM (not active)

N#Cc1c(N)nc(Sc2ccc(Cl)cc2)c(C#N)c1-c1ccccc1Cl
EC50 (Streptococcus): > 150 µM (not active)
EC50 [4]: 4.24 µM (active)
EC50 (Streptokinase A): 13.2 µM (active)

Oc1cccc(NC(=S)N=Nc2c(O)[nH]c3ccc(Br)cc23)c1
EC50 (Streptococcus): 4.54 µM (active)
EC50 [4]: 1.22 µM (active)

O=C(CNCCc1ccc(Cl)cc1)Nc1ccc(C(=O)N2CCCCC2)cc1
EC50 [1]: 0.502 µM (active)
EC50 [2]: > 60 µM (not active)

COc1cccc2sc3cc(C#CC4(O)CCCCC4)ccc3c(=O)c12
AC50 [5]: 2.4 µM (active)

CN1CCN(CC(=O)C23CC4CC(CC(C4)C2)C3)CC1
EC50 [1]: 0.225 µM (active)
EC50 [2]: > 30 µM (not active)

O=C(c1cc([N+](=O)[O-])cc([N+](=O)[O-])c1)N1CCN(Cc2ccc3c(c2)OCO3)CC1
EC50 [1]: 0.306 µM (active)
EC50 [2]: > 60 µM (not active)

Cc1cc(N2CCN(c3ccccc3Cl)CC2)n2cc(-c3ccccc3)nc2n1
EC50 (Streptococcus): 12 µM (active)
EC50 [4]: 11.5 µM (active)
EC50 (Streptokinase A): > 150 µM (not active)

COc1cc(OC)cc(C(=O)NC(=S)N2CCCCC2c2cccnc2)c1 (centres undefined)
EC50 [1]: 0.769 µM (active)
EC50 [2]: > 60 µM (not active)

CCc1ccc(NC2=NCC(c3ccccc3)S2)cc1 (centres undefined)
EC50 (Streptococcus): 18.8 µM (active)
EC50 [4]: 8.39 µM (active)
EC50 (Streptokinase A): > 150 µM (not active)

O=C(N/N=C\c1ccc(F)cc1)c1ccc(Cn2cc(Br)c([N+](=O)[O-])n2)o1
EC50 [1]: 0.761 µM (active)
EC50 [2]: > 60 µM (not active)

CCc1ccc(OCCCCN(C)Cc2ccccc2)cc1
EC50 [1]: 0.213 µM (active)
EC50 [2]: > 60 µM (not active)

CCOC(=O)c1ccc(NC(S)=NN)cc1
EC50 (Streptococcus): > 150 µM (not active)
EC50 [4]: 9.57 µM (active)

CCc1ccc(/C=C2/SC(=S)N(CC(=O)Nc3nc4ccccc4s3)C2=O)cc1
EC50 (Streptococcus): 35.4 µM (active)
EC50 [4]: 2.87 µM (active)
EC50 (Streptokinase A): > 150 µM (not active)

C=CCn1c(=O)c(C(=O)NCCc2ccccc2)c(O)c2ccccc21
AC50 [5]: 5.39 µM (active)

COc1ccc2sc(-c3ccc(N(C)C)cc3)c(-c3ccc4cc[nH]c4c3)c2c1
AC50 [5]: 3.54 µM (active)

Fc1ccccc1C1c2[nH]c3ccccc3c2CCN1Cc1cccn1-c1ncccn1 (centres undefined)
EC50 [1]: 1.07 µM (active)
EC50 [2]: > 60 µM (not active)

COc1ccc(NC(=O)CCN2CCN(C/C=C/c3ccccc3)CC2)cc1
EC50 [1]: 0.686 µM (active)
EC50 [2]: > 60 µM (not active)

COCc1cc(CN2CCCC(C(=O)c3cccc(C(F)(F)F)c3)C2)ccc1OC (centres undefined)
EC50 [1]: 0.1 µM (active)
EC50 [2]: > 60 µM (inconclusive)

CCOC(=O)c1ccc(NC(=S)NN)cc1
EC50 (Streptokinase A): > 150 µM (not active)

C/C(=N\Nc1nc2ccccc2s1)c1ccc2c(c1)OCO2
EC50 (Streptococcus): 65.6 µM (active)
EC50 [4]: 16.7 µM (active)
EC50 (Streptokinase A): > 150 µM (not active)

C=CCn1c(SC/C(O)=C(/C#N)C(C)=N)nc2sc(C)c(C)c2c1=O
EC50 (Streptococcus): 10 µM (active)
EC50 [4]: 6.33 µM (active)
EC50 (Streptokinase A): > 150 µM (not active)

O=C1CC(NS(=O)(=O)c2ccc([N+](=O)[O-])cc2)CN1c1cccc(F)c1 (centres undefined)
EC50 [1]: 1.08 µM (active)
EC50 [2]: > 60 µM (not active)

FC(F)(F)c1cccc(NC(=S)N(CCCN2CCCC2)Cc2cccn2Cc2ccc(Cl)cc2)c1
EC50 [1]: 2.15 µM (active)
AC50 [5]: 3.37 µM (active)
EC50 [2]: > 60 µM (not active)
